Here are results for six compounds from patent US10646478B2, “Methods for treatment of melanoma” (CHILDREN'S MEDICAL CENTER CORPORATION, priority 2011, dated 2020).

The subject of assay [1] is neural crest stem cells (NCSCs) from fetal (E14.5) rat gut. As to the kind of experiment: Rat neural crest stem cell assays (self-renewal, colony size, differentiation). It counts as cell-based. As to the method:
Enteric NCSCs from the fetal (E14.5) rat gut were isolated using flow cytometry to select the 1%-2% of cells expressing the highest levels p75 and α4 integrin as previously described^9. Cells were plated at clonal density in two wells/treatment and cultured in self-renewal medium for 8 days in LEF, A771726 or the vehicle (DMSO) followed by differentiation medium+/−LEF, A771726 or DMSO for 6 days. Cultures were fixed in 4% PFA then stained with antibodies against peripherin, GFAP, and SMA to identify neurons (N), glia (G) and myofibroblasts (M) respectively (U=unstained cells). A total of 3 to 4 independent experiments were performed, and differences measured by ANOVA followed by Bonferonni posthoc comparison. Self-renewal medium contains: DMEM-low glucose, 15% Chick Embryo Extract (CEE), Penn/Strep (P/S), 1% N2 supplement, 2% B27 supplement, 110 nM Retinoic Acid, 50 μM 2-mercaptoethanol 20 ng/ml bFGF, and 20 ng/ml IGF-1. Differentiation medium is the same except it contains 1% CEE, 10 ng/ml bFGF and no IGF-1. Differences between groups were calculated using ANOVA followed by posthoc Sheffe.
Dissociated fetal rat gut cells were plated at clonal density in non-adherent conditions in self-renewal medium with LEF, a77 or DMSO for 10 days^10. Three to five primary neurospheres per treatment were individually re-plated in adherent conditions with LEF, a77 or DMSO and after three days were dissociated into a single cell suspension using trypsin and collagenase IV. Dissociated cells from each neurosphere were re-plated in non-adherent conditions without LEF or a77 and after 10 days, the number of secondary neurospheres were counted and compared. To assess the number of multipotent primary and secondary neurospheres, a subset of neurospheres were plated adherently for 8 days in self-renewal medium followed by 6 days in differentiation medium. Cultures were fixed in 4% PFA and stained with antibodies against peripherin, GFAP, and SMA to identify neurons (N), glia (G) and myofibroblasts (M) respectively. A total of 5 independent experiments were analyzed, and the number of multipotent secondary neurospheres on a given day are normalized to the DMSO control wells, and differences calculated by ANOVA.

Assay [2] deals with T1, P. falciparum DHODH (Plasmodium falciparum, UniProt Q08210).
T1 sequence (Q08210 24-569): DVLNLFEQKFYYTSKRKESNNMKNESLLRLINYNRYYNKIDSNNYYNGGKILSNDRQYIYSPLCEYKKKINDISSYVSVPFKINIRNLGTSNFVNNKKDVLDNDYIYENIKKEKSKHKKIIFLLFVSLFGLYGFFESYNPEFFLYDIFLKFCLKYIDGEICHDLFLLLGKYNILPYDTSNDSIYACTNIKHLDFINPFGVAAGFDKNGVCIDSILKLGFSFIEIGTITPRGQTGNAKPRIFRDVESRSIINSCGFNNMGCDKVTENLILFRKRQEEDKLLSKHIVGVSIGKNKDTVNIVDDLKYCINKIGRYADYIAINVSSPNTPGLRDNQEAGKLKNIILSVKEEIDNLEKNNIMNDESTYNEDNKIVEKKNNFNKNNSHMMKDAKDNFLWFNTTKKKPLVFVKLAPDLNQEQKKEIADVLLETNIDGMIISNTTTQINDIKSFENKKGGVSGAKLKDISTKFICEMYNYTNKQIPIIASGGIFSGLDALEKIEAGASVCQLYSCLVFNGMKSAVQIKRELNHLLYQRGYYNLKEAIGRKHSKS
As to the kind of experiment: In vitro DHODH assay (DCIP reduction), malarial enzyme. It counts as biochemical. The conditions noted are these: FIG. 11. The method, then: (§1) The DHODH activity assay monitored the reduction of 2,6-dichloroindophenol (DCIP) and was conducted in 50 μl of 100 mM HEPES (pH 8.0) containing 150 mM NaCl, 5% glycerol, 0.05% Triton X-100, 175 μM L-DHO, 18 μM decylubiquinone (CoQD), and 95 μM DCIP, arrayed in a 384-well format. The concentrations of enzymes used were as follows: P. falciparum 12.5 nM, human 7 nM. Following a 20 minute incubation at room temperature the absorbance was measured at 600 nm (Envision, PerkinElmer).

Assay [3] relates to crestin+ neural crest progenitors. As to the kind of experiment: In situ hybridization (ISH) for crestin in zebrafish embryos (chemical screen for suppressors of neural crest development). It counts as in vivo. The following applies: for rescue of neural crest population (crestin ISH): in the presence of leflunomide, A771726 or DH #1. The method, then: The screen was performed essentially as previously described^31. In brief, WT embryos were collected, staged and then plated at a density of 10 embryos per well in a […] tissue culture plate in 200 ul of E3 water. At 50% epiboly, 100 ul of a 3× chemical stock was added to each well using a Hamilton liquid handling robot, yielding a final 1× concentration. For the majority of the chemicals in the library, this yielded a concentration of ˜33 uM. The libraries used were the BIOMOL 480, Sigma LOPAC 1280, and selected additional compounds obtained through the Children's Hospital Boston Chemical Screening facility. Compounds known to affect pigmentation in Xenopus were obtained from a screen previously described^32, 33. After treatment, embryos were rinsed in E3 water, pronase treated to remove chorions, washed 4× in E3 and 1× in PBT, and then fixed in 4% PFA for 24 hours. Fixed embryos were changed to 100% methanol 24 h later, and kept until the time of ISH.
Embryos underwent automated ISH using a Biolane HTI robot with a crestin riboprobe as previously described^31. All wells were manually scored by eye, assigning a score within a range of 1 (no crestin staining) to 3 (no change in crestin) to 5 (marked increase in crestin). Note was also taken of chemicals that affected migratory patterns in both A-P and D-V directions, and overall morphology. […] All hits were validated in larger, independent clutches of 100-200 embryos using chemicals obtained from independent suppliers.

Assay [4] concerns ventral melanocytes. Put plainly: Ventral melanocytes in Xenopus embryos. The following applies: stage 38 embryos. It counts as in vivo.
Assay [5] concerns the target human DHODH (Homo sapiens, UniProt Q02127). As to the kind of experiment: In vitro DHODH assay (DCIP reduction), human enzyme. It counts as biochemical. The conditions noted are these: FIG. 11. The method, then: as §1
In assay [6] the test system is human melanoma cell lines (A375, Hs.294t, RPMI7951). As to the kind of experiment: In vitro melanoma proliferation assay (CellTiterGlo). The conditions noted are these: RPMI7951 (BRAFV600E). It counts as cell-based. The method, then:
(§2) Human melanoma cell lines (A375, RPMI7951, Hs.294T, MAMLE-3M) were obtained from the American Type Culture Collection. The 8988 cell line was provided by Alec Kimmelman at Dana Farber, and the PANC1 and MDA-231-MB lines were provided by Rania Hartouche at Harvard. Cells were cultured in DMEM/10% FCS at 37 C, 5% CO2. For proliferation assays, 96-well clear bottom plates were used to plate cells at a density of 5,000 cells/well (RPMI7951 and A375) or 10,000 cells/well (MAMLE-3M-3M and Hs.294T) in 100 ul containing indicated concentrations of A771726 or PLX4720 or DMSO. All conditions were tested in triplicate. Media was changed at day 2, and proliferation rate was measured at day 4 using the CellTiterGlo assay kit (Promega). All values are expressed are the % of luciferase relative to the DMSO control well. Differences between groups were statistically analyzed using a generalized linear ANOVA model taking into account factors of PLX4720, A771726 and dose. IC50's were calculated using a log-logistic model.

Assay [7] relates to pancreatic cancer (8988, PANC1) and breast cancer (MDA-MD-231) cell lines. As to the kind of experiment: In vitro proliferation assay in non-melanoma cell lines. The conditions noted are these: BRAF WT; 8988, PANC1, MDA-MD-231. It counts as cell-based, human. As to the method:
as §2

Assay [8] has as its system A375 melanoma cells. Put plainly: In vivo xenograft study of A375 cells in nude mice. Set-up: species or system mouse. The conditions noted are these: daily i.p.; PLX4720 2.5 mg/kg, Leflunomide 7.5 mg/kg; DMSO 7.4+/−1.3-fold. The method, then:
The A375 cell line was chosen for xenografts based on prior experience with PLX4720 in this line. Cells were grown to 60-70% confluence, trypsinized and 3.5×10^5 cells were transplanted into the right flank of nude mice in a volume of 200 ul. […] Tumors were measured with digital calipers on day 4, 7 and 12 and growth rate was compared to the tumor size on day 0. Growth rates were compared between DMSO, PLX, LEF or […] using ANOVA with repeated measures to identify significant interactions. For the day 12 data, differences between the groups were compared using ANOVA followed by posthoc Tukey's least-squared difference.

Chain of human DHODH (Q02127 whole entry): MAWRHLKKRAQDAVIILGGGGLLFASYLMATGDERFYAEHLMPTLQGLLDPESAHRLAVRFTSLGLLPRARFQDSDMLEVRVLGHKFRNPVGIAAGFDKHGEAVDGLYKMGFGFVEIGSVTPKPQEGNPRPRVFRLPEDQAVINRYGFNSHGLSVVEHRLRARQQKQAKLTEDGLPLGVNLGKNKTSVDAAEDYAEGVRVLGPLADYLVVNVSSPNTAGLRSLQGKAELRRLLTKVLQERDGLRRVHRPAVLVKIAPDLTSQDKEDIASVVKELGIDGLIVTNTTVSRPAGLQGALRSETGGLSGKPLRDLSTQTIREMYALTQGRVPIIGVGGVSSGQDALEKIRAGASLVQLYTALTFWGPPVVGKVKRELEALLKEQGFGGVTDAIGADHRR

As to `C/C(O)=C(\C#N)C(=O)Nc1ccc(C(F)(F)F)cc1` [A771726, teriflunomide], in assay [1], the “colony size reduced compared to controls” value is listed as 24% and the “number of self-renewing NCSCs from primary stem cell colonies” value is 35+/−6.16 % of controls.
`O=C(O)c1cc(-c2ccc(-c3ccc(-c4cc(C(=O)O)c5cc(Cl)ccc5n4)cc3)cc2)nc2ccc(Cl)cc12` [NSC210627]: the “inhibition of purified malarial DHODH” value in assay [2] is on record as “strong inhibition of both enzymes”. Moreover, the “crestin expression by ISH” value in assay [3] (zebrafish embryos, 50% epiboly to 24 hpf) is reported as “strongly abrogated expression of crestin”. In addition, the “ventral melanocytes in Xenopus embryos” value in assay [4] is recorded as “reduction of ventral melanocytes”. Besides, the “inhibition of purified human DHODH” value in assay [5] is “strong inhibition of both enzymes, at lower concentrations in the human versus malarial forms”.
Consider `CCCS(=O)(=O)Nc1ccc(F)c(C(=O)c2c[nH]c3ncc(Cl)cc23)c1F` [PLX4720], for which the “sensitivity of RPMI7951 to the BRAF inhibitor” value in assay [6] is listed as “significantly less sensitive than the other tested cell lines”. Also, the “proliferation of non-melanoma cell lines” value in assay [7] was “no effect”. Further, in assay [8], the “tumor growth at 12 days post-treatment” value is listed as 5.7+/−0.16 fold.
In the case of `C[C@@]1(CO)[C@H](O)CC[C@@]2(C)[C@H]1CC[C@H]1C[C@@H]3C[C@@]12CC[C@]3(O)CO` [aphidicolin], the “rescue of neural crest population (crestin ISH)” value in assay [3] is given as “rescue of the neural crest population”.
Still for that read-out and setting: the same measure for `CCCCCCCCCCC1=C(C)C(=O)C(OC)=C(OC)C1=O` [decylubiquinone]: “rescue of the neural crest population”; for `CC(=O)[C@H]1CC[C@H]2[C@@H]3CCC4=CC(=O)CC[C@]4(C)[C@H]3CC[C@]12C` [progesterone]: “rescue of the neural crest population”.
